Source: patent publication US20230131427A1, “FUNGICIDAL COMPOSITIONS” (SYNGENTA CROP PROTECTION AG, priority 2020, published 2023)
Like-named read-outs stand apart in the source and are kept apart here.

Experiments:
[1] = test system: Glomerella lagenarium syn. Colletotrichum lagenarium; test: Example B1: mixtures, preventative activity against Glomerella lagenarium syn. Colletotrichum lagenarium, liquid culture; assay type: cell-based; conditions: for inhibition at 0.1 ppm / inhibition at 0.3 ppm: Colletotrichum orbiculare, read-out: Activity (%) B
Source text: (§1) This occurs whenever the action of an active ingredient combination is greater than the sum of the actions of the individual components. The action to be expected E for a given active ingredient combination obeys the so-called COLBY formula and can be calculated as follows (COLBY, S. R. “Calculating synergistic and antagonistic responses of herbicide combination”. Weeds, Vol. 15, pages 20-22; 1967):
(§2) If the action actually observed (O) is greater than the expected action (E), then the action of the combination is super-additive, i.e. there is a synergistic effect. In mathematical terms, synergism corresponds to a positive value for the difference of (O-E). In the case of purely complementary addition of activities (expected activity), said difference (O-E) is zero. A negative value of said difference (O-E) signals a loss of activity compared to the expected activity.
(§3) Conidia of the fungus from cryogenic storage were directly mixed into nutrient broth (PDB potato dextrose broth). A DMSO solution of the test compounds was placed into a microtiter plate (96-well format) and the nutrient broth containing the fungal spores was added to it.
(§4) Fungicidal activity was evaluated on a 100-0 scale (100=no disease growth; 0=well completely covered by mycelium).

Septoria glycines = test: Example B2: mixtures, preventative activity against Septoria glycines (brown spot), liquid culture; assay type: cell-based; conditions: component B alone; for inhibition at 0.1 ppm / inhibition at 0.3 ppm: Septoria glycines; for inhibition at 0.1 ppm: read-out: Activity (%) B
Source text: as §1, §2
as §3, with “fungus harvested” for “fungus”, “a fresh culture grown on artificial media,” for “cryogenic storage”
as §4

[2] = test system: Mycosphaerella arachidis syn. Cercospora arachidicola; test: Example B4: mixtures, preventative activity against Mycosphaerella arachidis syn. Cercospora arachidicola (brown leaf spot of peanut), liquid culture; assay type: cell-based; conditions: component B alone; for inhibition at 0.1 ppm / inhibition at 0.3 ppm: Mycosphaerella arachidis
Source text: as §1, §2, §3
Cercospora arachidicola (Brown leaf spot of peanut). Fungicidal activity was evaluated on a 100-0 scale (100=no disease growth; 0=well completely covered by mycelium).

Septoria tritici = test: Example B3: mixtures, preventative activity against Septoria tritici (leaf blotch), liquid culture; assay type: cell-based; conditions: for inhibition at 0.1 ppm / inhibition at 0.3 ppm: Zymoseptoria tritici, read-out: Activity (%) B
Source text: as §1, §2, §3, §4

Phakopsora pachyrhizi = test: Example B5: preventative activity against Phakopsora pachyrhizi (soybean rust), whole soybean plants sprayed, leaf disks inoculated; assay type: in vivo
Description: Whole soybean plants are treated with the recited active ingredients 4 weeks after planting. 1 day after spraying leaf disks are cut from the first trifoliate leaf. Five repetitions at each rate are conducted. The leaf disks are inoculated with Phakopsora pachyrhizi (Asian soybean rust) one day after treatment.
Evaluation of the leaf disks is conducted 11 to 14 days after inoculation and the activity is derived from the relation of the treated vs untreated, infested check (100=no disease, no damage to the leaf, 0=high infestation, leaf damaged heavily). The rates of the active ingredients used are given in the tables as g active ingredient (a.i.)/ha.

[3] = 72 h, component B alone, 0.1 ppm, 72 hrs, 100=no disease growth
[4] = 72 h, component B alone, 0.3 ppm, 72 hrs
[5] = component B alone, 0.3 ppm, 100-0 scale
[6] = active ingredient alone, 2.25 g/ha
[7] = active ingredient alone, 4.5 g/ha
[8] = active ingredient alone, 9 g/ha
[9] = component B alone, 0.1 ppm, 100-0 scale
[10] = Phakopsora pachyrhizi, foliar, read-out: Observed Activity (% of untreated) against Phakopsora pachyrhizi
[11] = Phakopsora pachyrhizi, foliar, applied alone, 22.5 g/ha, read-out: Observed Activity (% of untreated) against Phakopsora pachyrhizi
[12] = Phakopsora pachyrhizi, foliar, applied alone, 45 g/ha, read-out: Observed Activity (% of untreated) against Phakopsora pachyrhizi

With `Cc1ccc(C(=O)OCc2ccc(Oc3ccccc3)cc2)c(N)n1` [aminopyrifen] the “Activity (%) B” value ([1]; component B alone, 0.1 ppm) was 20%, the “Activity (%) B” value ([1]; component B alone, 0.3 ppm) was 50% and the “Activity (%) B” value (Septoria glycines; 0.1 ppm) was 0%. The “Activity (%) B” value (Septoria glycines; 0.1 ppm, 100-0 scale) was 0%, the “Activity (%) B” value (Septoria glycines; 0.3 ppm, 100-0 scale) was 20% and the “Activity (%) B” value ([2]; 0.1 ppm) was 90%. The “Activity (%) B” value ([2]; 0.3 ppm) was 100%.
`O=C(NCCc1ncc(C(F)(F)F)cc1Cl)c1ccccc1C(F)(F)F` [fluopyram] showed an inhibition at 0.1 ppm (Septoria tritici; [3]) of 0%, an inhibition at 0.3 ppm (Septoria tritici; [4]) of 50% and an inhibition at 0.1 ppm ([2]; 0.1 ppm) of 0%. It also gave an inhibition at 0.3 ppm ([2]; 0.3 ppm) of 90%.
For `N#Cc1c(Cl)c(Cl)c(Cl)c(C#N)c1Cl` [chlorothalonil, reference compound], the inhibition at 0.1 ppm ([1]; component B alone, 0.1 ppm) was 0%, the inhibition at 0.3 ppm ([1]; component B alone, 0.3 ppm) was 20% and the inhibition at 0.1 ppm (Septoria tritici; [3]) was 20%. For the same molecule, the inhibition at 0.3 ppm (Septoria tritici; [4]) was 70%, the inhibition at 0.3 ppm (Septoria tritici; [5]) was 70% and the inhibition at 0.1 ppm ([2]; 0.1 ppm) was 0%. For the same molecule, the inhibition at 0.3 ppm ([2]; 0.3 ppm) was 90%.
`Cc1cccc(-n2nnn(C)c2=O)c1COc1ccn(-c2ccc(Cl)cc2)n1` [metyltetraprole, reference compound] was tested, and the “Activity (%) B” value ([1]; component B alone, 0.1 ppm) was 90%, the “Activity (%) B” value ([1]; component B alone, 0.3 ppm) was 90% and the “Observed Activity (%) (% of untreated)” value (Phakopsora pachyrhizi; [6]) was 1%. The “Observed Activity (%) (% of untreated)” value (Phakopsora pachyrhizi; [7]) was 0%, the “Observed Activity (%) (% of untreated)” value (Phakopsora pachyrhizi; [8]) was 7% and the “Observed Activity (%) (% of untreated)” value (Phakopsora pachyrhizi; active ingredient alone, 18 g/ha) was 67%. For the same molecule, the “Observed Activity (% of untreated) against Phakopsora pachyrhizi” value (shortened to “Observed Activity (% of untreated)”) (Phakopsora pachyrhizi; applied alone, 2.25 g/ha) was 1%, the “Observed Activity (% of untreated)” value (Phakopsora pachyrhizi; applied alone, 4.5 g/ha) was 0% and the “Observed Activity (% of untreated)” value (Phakopsora pachyrhizi; applied alone, 9 g/ha) was 7%. For the same molecule, the “Observed Activity (% of untreated)” value (Phakopsora pachyrhizi; applied alone, 18 g/ha) was 67%.
`Cc1nc2c(F)c(F)ccc2cc1Oc1cccc(F)c1C(C)(C)O` [ipflufenoquin] was tested, and the “Activity (%) B” value ([1]; component B alone, 0.1 ppm) was 20%, the “Activity (%) B” value ([1]; component B alone, 0.3 ppm) was 100% and the “Activity (%) B” value (Septoria glycines; 0.1 ppm, 100-0 scale) was 0%. For the same molecule, the “Activity (%) B” value (Septoria glycines; 0.3 ppm, 100-0 scale) was 0%, the “Activity (%) B” value (Septoria tritici; [9]) was 0% and the “Activity (%) B” value (Septoria tritici; [5]) was 20%.
`CC(C)c1ccc(Cl)cc1CN(C(=O)c1c(C(F)F)nn(C)c1F)C1CC1` [isoflucypram] was tested, and the “Activity (%) B” value ([2]; 0.1 ppm) was 90% and the “Activity (%) B” value ([2]; 0.3 ppm) was 100%.
`N#Cc1c[nH]cc1-c1cccc2c1OC(F)(F)O2` [fludioxonil, reference compound] gave an inhibition at 0.1 ppm [1] of 0%, an inhibition at 0.3 ppm [1] of 0% and an inhibition at 0.1 ppm (Septoria tritici; 72 h) of 0%. It also gave an inhibition at 0.3 ppm (Septoria tritici; 72 h) of 20%, an inhibition at 0.1 ppm (Septoria tritici) of 0% and an inhibition at 0.3 ppm (Septoria tritici) of 20%. The inhibition at 450 g/ha (Phakopsora pachyrhizi; [10]) was 0% and the inhibition at 900 g/ha (Phakopsora pachyrhizi; [10]) was 1%.
Molecule `CON=C(C(=O)OC)c1ccccc1CON=C(C)c1cccc(C(F)(F)F)c1` [trifloxystrobin, reference compound] has an inhibition at 0.1 ppm ([1]; component B alone, 0.1 ppm) of 90%, an inhibition at 0.3 ppm ([1]; component B alone, 0.3 ppm) of 90% and an inhibition at 0.1 ppm (Septoria glycines; 0.1 ppm, 100-0 scale) of 90%. For the same molecule, the inhibition at 0.3 ppm (Septoria glycines; 0.3 ppm, 100-0 scale) was 100%, the inhibition at 2.25 g/ha (Phakopsora pachyrhizi; Phakopsora pachyrhizi, foliar, applied alone, 2.25 g/ha, read-out: Observed Activity (% of untreated) against Phakopsora pachyrhizi) was 0% and the inhibition at 4.5 g/ha (Phakopsora pachyrhizi; Phakopsora pachyrhizi, foliar, applied alone, 4.5 g/ha, read-out: Observed Activity (% of untreated) against Phakopsora pachyrhizi) was 3%. The inhibition at 9 g/ha (Phakopsora pachyrhizi; Phakopsora pachyrhizi, foliar, applied alone, 9 g/ha, read-out: Observed Activity (% of untreated) against Phakopsora pachyrhizi) was 0% and the inhibition at 18 g/ha (Phakopsora pachyrhizi; Phakopsora pachyrhizi, foliar, applied alone, 18 g/ha, read-out: Observed Activity (% of untreated) against Phakopsora pachyrhizi) was 19%.
`[Cl-].[Cu+2].[Cu+2].[OH-].[OH-].[OH-]` [copper oxychloride, reference compound] was tested, and the “Activity (%) B” value ([1]; component B alone, 0.1 ppm) was 0%, the “Activity (%) B” value ([1]; component B alone, 0.3 ppm) was 0% and the “Observed Activity (% of untreated)” value (Phakopsora pachyrhizi; applied alone, 22.5 g/ha) was 2%. The “Observed Activity (% of untreated)” value (Phakopsora pachyrhizi; applied alone, 45 g/ha) was 5%.
With `OC(Cc1ccccc1Cl)(Cn1nc[nH]c1=S)C1(Cl)CC1` (stereo not drawn) [proth ioconazole, prothioconazole, reference compound] the inhibition at 0.3 ppm ([1]; component B alone, 0.3 ppm) was 50%, the “Activity (%) B” value ([1]; component B alone, 0.1 ppm) was 20% and the inhibition at 0.1 ppm (Septoria glycines; 0.1 ppm, 100-0 scale) was 90%. The inhibition at 0.3 ppm (Septoria glycines; 0.3 ppm, 100-0 scale) was 90%, the “Activity (%) B” value (Septoria glycines; 0.3 ppm) was 50% and the inhibition at 22.5 g/ha (Phakopsora pachyrhizi; Phakopsora pachyrhizi, foliar, active ingredient alone, 22.5 g/ha, read-out: Observed Activity (%) (% of untreated)) was 47%. It also gave an inhibition at 45 g/ha (Phakopsora pachyrhizi; Phakopsora pachyrhizi, foliar, active ingredient alone, 45 g/ha, read-out: Observed Activity (%) (% of untreated)) of 80%, an inhibition at 90 g/ha (Phakopsora pachyrhizi; Phakopsora pachyrhizi, foliar, active ingredient alone, read-out: Observed Activity (%) (% of untreated)) of 94% and an inhibition at 22.5 g/ha (Phakopsora pachyrhizi; [11]) of 47%. The inhibition at 45 g/ha (Phakopsora pachyrhizi; [12]) was 80% and the inhibition at 90 g/ha (Phakopsora pachyrhizi; Phakopsora pachyrhizi, foliar, applied alone, read-out: Observed Activity (% of untreated) against Phakopsora pachyrhizi) was 94%.
With `COc1ccnc(C(=O)N[C@@H](C)C(=O)O[C@@H](C)C(c2ccc(F)cc2)c2ccc(F)cc2)c1OC(C)=O` [florylpicoxamid, reference compound] the “Activity (%) B” value (Septoria glycines; 0.01 ppm) was 0%, the “Activity (%) B” value (Septoria glycines; 0.01 ppm, 100-0 scale) was 0% and the “Activity (%) B” value (Septoria glycines; 0.02 ppm) was 20%. For the same molecule, the “Activity (%) B” value (Septoria glycines; 0.02 ppm, 100-0 scale) was 20%, the “Activity (%) B” value (Septoria tritici; component B alone, 0.01 ppm, 100-0 scale) was 0% and the “Activity (%) B” value (Septoria tritici; component B alone, 0.01 ppm, 72 hrs) was 0%. The “Activity (%) B” value (Septoria tritici; component B alone, 0.02 ppm, 100-0 scale) was 20%, the “Activity (%) B” value (Septoria tritici; component B alone, 0.02 ppm, 72 hrs) was 20% and the “Activity (%) B” value ([2]; 0.01 ppm) was 70%. The “Activity (%) B” value ([2]; 0.02 ppm) was 90%.
`O=C1c2ccccc2C(=O)N1SC(Cl)(Cl)Cl` [folpet] gave an inhibition at 0.1 ppm (Septoria tritici; [9]) of 0%, an inhibition at 0.3 ppm (Septoria tritici; [5]) of 0% and an inhibition at 0.1 ppm ([2]; 0.1 ppm) of 20%.
`CCOC(=O)C1CC(=O)C(=C(O)C2CC2)C(=O)C1` (stereo not drawn) [trinexapac-ethyl, reference compound] showed an inhibition at 0.1 ppm ([1]; component B alone, 0.1 ppm) of 0%, an inhibition at 0.3 ppm ([1]; component B alone, 0.3 ppm) of 0% and an inhibition at 22.5 g/ha (Phakopsora pachyrhizi; [11]) of 0%. It also gave an inhibition at 22.5 g/ha (Phakopsora pachyrhizi; Phakopsora pachyrhizi, foliar, applied alone, 22.5 g/ha, read-out: Observed Activity (%) (% of untreated) against Phakopsora pachyrhizi) of 0%, an inhibition at 45 g/ha (Phakopsora pachyrhizi; [12]) of 0% and an inhibition at 45 g/ha (Phakopsora pachyrhizi; Phakopsora pachyrhizi, foliar, applied alone, 45 g/ha, read-out: Observed Activity (%) (% of untreated) against Phakopsora pachyrhizi) of 0%.
In the case of `Cn1cc(C(=O)Nc2cccc3c2[C@@H]2CC[C@H]3C2=C(Cl)Cl)c(C(F)F)n1` (racemic) [benzovindiflupyr, reference compound], the “Activity (%) B” value ([1]; component B alone, 0.1 ppm) is reported as 50%, the “Activity (%) B” value ([1]; component B alone, 0.3 ppm) is reported as 100% and the “Activity (%) B” value (Septoria tritici; [9]) is reported as 50%. The “Activity (%) B” value (Septoria tritici; [5]) was 70%, the “Observed Activity (%) (% of untreated)” value (Phakopsora pachyrhizi; [6]) was 34% and the “Observed Activity (%) (% of untreated)” value (Phakopsora pachyrhizi; [7]) was 80%. For the same molecule, the “Observed Activity (%) (% of untreated)” value (Phakopsora pachyrhizi; [8]) was 99%, the “Observed Activity (% of untreated)” value (Phakopsora pachyrhizi; applied alone, 2.25 g/ha) was 34% and the “Observed Activity (% of untreated)” value (Phakopsora pachyrhizi; applied alone, 4.5 g/ha) was 80%. The “Observed Activity (% of untreated)” value (Phakopsora pachyrhizi; applied alone, 9 g/ha) was 99%.
